Data reported in PubChem BioAssay (NCI).
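Grown in 96-well plates, cells were treated for 48 hours with each compound at five concentrations. Insufficient inhibition: endpoint recorded as highest concentration tested. GI50 is the concentration that inhibits growth by half. TGI marks complete inhibition of growth.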

Experiments:
Experiment in all cases: inhibition of tumour cell growth, NCI panel, 48 h
SK-MEL-28 melanoma = tested on: SK-MEL-28 melanoma
SF-268 CNS = tested on: SF-268 CNS
TK-10 renal = tested on: TK-10 renal
CAKI-1 renal = tested on: CAKI-1 renal
A498 renal = tested on: A498 renal
MOLT-4 leukemia = tested on: MOLT-4 leukemia
CCRF-CEM leukemia = tested on: CCRF-CEM leukemia
NCI-H23 lung = tested on: NCI-H23 lung
SF-539 CNS = tested on: SF-539 CNS
ACHN renal = tested on: ACHN renal

Compound	GI50 (SK-MEL-28 melanoma) [µM]	TGI (SK-MEL-28 melanoma) [µM]	GI50 (SF-268 CNS) [µM]	TGI (SF-268 CNS) [µM]	GI50 (TK-10 renal) [µM]	TGI (TK-10 renal) [µM]	GI50 (CAKI-1 renal) [µM]	TGI (CAKI-1 renal) [µM]	GI50 (A498 renal) [µM]	TGI (A498 renal) [µM]	GI50 (MOLT-4 leukemia) [µM]	TGI (MOLT-4 leukemia) [µM]	GI50 (CCRF-CEM leukemia) [µM]	TGI (CCRF-CEM leukemia) [µM]	GI50 (NCI-H23 lung) [µM]	TGI (NCI-H23 lung) [µM]	GI50 (SF-539 CNS) [µM]	TGI (SF-539 CNS) [µM]	GI50 (ACHN renal) [µM]	TGI (ACHN renal) [µM]
O=C(CCCc1c[nH]c2ccccc12)NC1CC(=O)c2c(Br)sc(Br)c21 (centres undefined)	2.77	9.02	10.5	27.1	26	> 100	10.2	31.6	24.2	40.5	10.2	55.4	12.9	> 100	12.2	26.1	23.1	50.1	16.5	30.4
CC1=C(C(=O)Nc2ccc([N+](=O)[O-])cc2)C(c2ccco2)C(C(=O)Nc2ccc([N+](=O)[O-])cc2)=C(C)N1		> 100		> 100		94.3		90.1		82		52.5		51.2		65.9		> 100		53.4
N#C/C(=C\c1c(-c2ccccc2)[nH]c2ccccc12)C(=O)c1ccc(Cl)cc1	3.33	41.2	4.55	24.8	8.6	43.8	1.23	> 31.2	2.82	14.7	1.01	8.87	2.48	> 100	3.71	38.5	0.715	3.99	6.69	> 55
Nc1cccc2c1C(=O)N(C1CCC(=O)NC1=O)C2=O (centres undefined)	> 100	> 100	> 100	> 100	> 100	> 100	> 100	> 100	> 100	> 100	> 100	> 100	> 100	> 100	> 100	> 100	> 100	> 100	> 100	> 100
CCCCCCCCCCCCc1ccc(C(=O)/C=C/C(=O)O)cc1	1.92	3.74	2.64	8.28	1.82	3.64	1.76	3.58	13.2	26.7	0.99	5.11	0.547	5.29	1.89	4.65	1.73	3.33	1.73	3.15
Cc1cc2c(C)c3cc(C)c(N)cc3nc2cc1N	2.69	10.5	0.604	6.53	1.31	5.39	2.03	8.66	0.363	2.01	0.43	6.23	0.93	10.6	0.852	4.28	0.455	3.48	0.422	3.82
COc1cc2c(cc1OC)C(=O)C(Br)CC2 (centres undefined)	4.85	16.3	4.36	15.7	5.17	17.8	3.56	12.4	11.3	23.6	3.22	15	2.82	11.9	2.89	10.9	3.12	11.2	1.86	3.7
COc1ccc(N(C)c2nc(C)nc3ccccc23)cc1	19.3	> 100	< 0.01	> 34		> 47.5	< 0.01	46.4	< 0.01	< 0.01	< 0.01	> 100	< 0.01	> 100	< 0.01	20.8	< 0.01	> 100	< 0.01	> 91.8
O=C1c2ccccc2-c2c1c1ccccc1c(=O)n2CCO		> 100		> 100		> 100		> 51.7		> 100		9.36		> 100		> 61.9		> 94.1		10.4
S=c1[nH]nc(COc2ccc(Cl)cc2)o1		> 100		> 100		> 100		> 100		> 100		> 100		> 100		> 100		> 100		> 100
COc1cccc(NC(=O)c2sc3nc4c(cc3c2N)CCCC4)c1	0.905	> 100	0.714	37	2.97	34	0.503	66.3	0.349	14.2	0.765	> 100	0.347	19.2	0.813	> 100	0.368	12.8	0.953	> 100
O=S(=O)(c1ccc(NC(=S)N/N=C/c2ccccc2O)cc1)N1CCCCC1		> 52		6.9		4.23		0.671		27.9		2.13		1.66		6.94		> 40.9		10.2
CC1=C(C(=O)Nc2ccccc2)C(c2ccc3c(c2)OCO3)C(C(=O)Nc2ccccc2)=C(C)N1		> 100		> 100		> 100		> 100		> 100		82		41		> 100		76		> 100
